23 compounds from patent US20230322721A1 (OSLO UNIVERSITETSSYKEHUS HF, priority 2020, published 2023) can be followed below.

The structures appear in SMILES notation. Where two headings read alike, the source gives them in different places.

A short description of series [1]: Metabolic stability in human liver microsomes (HLM). It is filed as in vitro ADME. The conditions noted are these: pH 7.4, 1 μM compound, 0.5 mg/ml microsomal protein, 37° C. The method, then: (§1) Metabolic stability was investigated in mouse liver microsomes (MLM) and in human liver microsomes (HLM): […] Incubations were performed at 37° C. Control incubations with reference substances were included for each experiment. […] After the last time point, the quench plates were mixed thoroughly and centrifuged for 15 minutes at 3700 rpm and 10° C. (Eppendorf 5804R). The supernatant was transferred to new 96 well plates and subjected to LCMS analysis. The disappearance of the parent compound was determined.

The target of series [2] is TNKS2 (Homo sapiens (Human), UniProt Q9H2K2). In words: Biochemical IC50 TNKS2. From the text: (§2) XLfit (idbs) was used to determine the IC50-values in inhibition experiments. The following formula was chosen to fit the data points (Langmuir Binding Isotherm): fit=((A+(B*x))+(((C−B)*(1−exp((−1*D)*x)))/D)), res=(y−fit).
Chain of TNKS2 (Q9H2K2 whole entry): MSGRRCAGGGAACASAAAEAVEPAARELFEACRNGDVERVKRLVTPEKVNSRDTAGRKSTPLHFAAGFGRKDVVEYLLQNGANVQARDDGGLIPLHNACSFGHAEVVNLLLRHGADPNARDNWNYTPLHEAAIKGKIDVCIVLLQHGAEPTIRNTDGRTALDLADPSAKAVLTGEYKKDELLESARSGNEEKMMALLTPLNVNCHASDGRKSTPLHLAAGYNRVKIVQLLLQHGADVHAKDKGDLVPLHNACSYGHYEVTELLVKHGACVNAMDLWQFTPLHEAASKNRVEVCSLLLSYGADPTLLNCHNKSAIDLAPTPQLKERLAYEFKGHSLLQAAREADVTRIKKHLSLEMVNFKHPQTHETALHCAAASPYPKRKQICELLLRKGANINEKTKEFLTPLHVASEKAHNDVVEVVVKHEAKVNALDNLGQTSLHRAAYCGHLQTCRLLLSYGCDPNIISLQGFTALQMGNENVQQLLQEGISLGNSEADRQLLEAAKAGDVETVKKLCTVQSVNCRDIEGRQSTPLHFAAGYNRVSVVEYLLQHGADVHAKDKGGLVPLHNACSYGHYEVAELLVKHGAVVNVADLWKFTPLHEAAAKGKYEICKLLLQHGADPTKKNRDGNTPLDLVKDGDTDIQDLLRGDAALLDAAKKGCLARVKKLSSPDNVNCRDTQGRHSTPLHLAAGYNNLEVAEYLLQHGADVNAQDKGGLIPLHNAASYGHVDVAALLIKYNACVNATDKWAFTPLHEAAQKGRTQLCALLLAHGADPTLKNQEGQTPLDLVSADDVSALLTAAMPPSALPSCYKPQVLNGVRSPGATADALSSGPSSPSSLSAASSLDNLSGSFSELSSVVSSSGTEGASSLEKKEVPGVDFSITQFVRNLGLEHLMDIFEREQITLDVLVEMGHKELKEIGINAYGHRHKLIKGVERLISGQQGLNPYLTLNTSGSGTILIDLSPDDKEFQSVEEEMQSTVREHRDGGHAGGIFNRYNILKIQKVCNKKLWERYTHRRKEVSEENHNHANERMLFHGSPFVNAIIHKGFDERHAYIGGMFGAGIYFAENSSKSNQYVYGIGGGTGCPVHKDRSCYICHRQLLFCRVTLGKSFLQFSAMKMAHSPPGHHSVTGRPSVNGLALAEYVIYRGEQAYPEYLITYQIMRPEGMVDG
A short description of series [3]: Metabolic stability in mouse liver microsomes (MLM). It is filed as in vitro ADME. The following applies: pH 7.4, 1 μM compound, 0.5 mg/ml microsomal protein, 37° C. The method, then: as §1
Series [4] has as its system HEK293. Briefly: Cellular IC50 HEK293. It is filed as cell-based.
Description: as §2

[5] abbreviates: read-out: Biochemical IC50 TNKS2.
Where [6] appears, read: Homo sapiens, HEK293; read-out: Cellular IC50 HEK293.
[7] abbreviates: Homo sapiens, HEK293; read-out: Cellular IC50 HEK 293.
The mark [8] stands for this setting: Homo sapiens, HEK293, read-out: Cellular IC50 HEK 293.
Setting [9] is: Homo sapiens, HEK293, read-out: Cellular IC50 HEK293.

On to `CCOc1ccc(-c2nnc([C@H]3C[C@H](NC(=O)c4cccc5ncc(O)nc45)C3)n2-c2ccccc2F)nc1` [Example 1, N-((1R,3r)-3-(5-(5-ethoxypyridin-2-yl)-4-(2-fluorophenyl)-4H-1,2,4-triazol-3-yl)cyclobutyl)-3-hydroxyquinoxaline-5-carboxamide], for which the figures for the microsomal CLint at 1 μM in series [1] and in series [3] were 45 µL/min/mg and 72 µL/min/mg, respectively. For the same compound, the half-life at 1 μM in series [1] (read-out: HLM t1/2 average) was 31 min; in series [3] (read-out: MLM t1/2 average), 19 min. Also, the IC50 in series [2] (setting [5]) was found to be 36 nM; in series [4] (setting [6]), 220 nM.
As for `CCOc1ccc(-c2nnc([C@H]3C[C@H](NC(=O)c4cccc(C(N)=O)n4)C3)n2-c2ccccc2F)nc1` [Example 7, N-(trans-3-(5-(5-ethoxypyridin-2-yl)-4-(2-fluorophenyl)-4H-1,2,4-triazol-3-yl)cyclobutyl)pyridine-2,6-dicarboxamide], the IC50 in series [4] (setting [7]) and in series [4] (setting [6]) was 70 nM each time.
On to `CCOc1ccc(-c2nnc([C@H]3C[C@H](NC(=O)c4cccc(C(=O)NC)n4)C3)n2-c2ccccc2F)nc1` [Example 8, N2-(trans-3-(5-(5-ethoxypyridin-2-yl)-4-((S)-2-fluorophenyl)-4H-1,2,4-triazol-3-yl)cyclobutyl)-N6-methylpyridine-2,6-dicarboxamide], for which the IC50 in series [4] (setting [7]) and in series [4] (setting [6]) was 21 nM each time.
`CCOc1ccc(-c2nnc([C@H]3C[C@H](NC(=O)c4cccc(C(=O)N(C)C)n4)C3)n2-c2ccccc2F)nc1` [Example 9]: the IC50 in series [4] (setting [7]) came out at 190 nM; in series [4] (setting [6]), 187 nM.
For `CCOc1ccc(-c2nnc([C@H]3C[C@H](NC(=O)c4cccc(C(=O)N5CCC5)n4)C3)n2-c2ccccc2F)nc1` [Example 10, 6-(azetidine-1-carbonyl)-N-(trans-3-(5-(5-ethoxypyridin-2-yl)-4-((S)-2-fluorophenyl)-4H-1,2,4-triazol-3-yl)cyclobutyl)picolinamide], the IC50 in series [4] (setting [8]) and in series [4] (setting [9]) was 41 nM in each case.
For the compound `CCOc1ccc(-c2nnc([C@H]3C[C@H](NC(=O)c4cccc(=O)[nH]4)C3)n2-c2ccccc2F)nc1` [Example 11, N-(trans-3-(5-(5-ethoxypyridin-2-yl)-4-(2-fluorophenyl)-4H-1,2,4-triazol-3-yl)cyclobutyl)-6-oxo-1,6-dihydropyridine-2-carboxamide], the values for the IC50 in series [4] (setting [7]) and in series [4] (setting [6]) were 2800 nM and 2770 nM, respectively.
Take `CCOc1ccc(-c2nnc([C@H]3C[C@H](NC(=O)c4cccc5cc(O)ccc45)C3)n2-c2ccccc2F)nc1` [Example 12]: the half-inhibitory concentration (IC50) in series [4] (setting [7]) and in series [4] (setting [6]) was above 10000 nM in each case.
For the compound `CCOc1ccc(-c2nnc([C@H]3C[C@H](NC(=O)c4cccc5[nH]c(=O)ccc45)C3)n2-c2ccccc2F)nc1` [Example 13, N-(trans-3-(5-(5-ethoxypyridin-2-yl)-4-(2-fluorophenyl)-4H-1,2,4-triazol-3-yl)cyclobutyl)-2-oxo-1,2-dihydroquinoline-5-carboxamide], the IC50 in series [4] (setting [7]) and in series [4] (setting [6]) was above 10000 nM in each case.
As to `CCOc1ccc(-c2nnc([C@H]3C[C@H](NC(=O)c4cccc5c(O)ccnc45)C3)n2-c2ccccc2F)nc1` [Example 14, N-(trans-3-(5-(5-ethoxypyridin-2-yl)-4-(2-fluorophenyl)-4H-1,2,4-triazol-3-yl)cyclobutyl)-4-hydroxyquinoline-8-carboxamide], the IC50 in series [4] (setting [7]) and in series [4] (setting [6]) was 8.5 nM each time.
Take `CCOc1ccc(-c2nnc([C@H]3C[C@H](NC(=O)c4cccc(O)c4)C3)n2-c2ccccc2F)nc1` [Example 15, N-(trans-3-(5-(5-ethoxypyridin-2-yl)-4-(2-fluorophenyl)-4H-1,2,4-triazol-3-yl)cyclobutyl)-3-hydroxybenzamide]: the IC50 in series [4] (setting [7]) and in series [4] (setting [6]) was 130 nM throughout.
Regarding `CCOc1ccc(-c2nnc([C@H]3C[C@H](NC(=O)c4cccc(S(N)(=O)=O)c4)C3)n2-c2ccccc2F)nc1` [Example 16, N-(trans-3-(5-(5-ethoxypyridin-2-yl)-4-(2-fluorophenyl)-4H-1,2,4-triazol-3-yl)cyclobutyl)-3-sulfamoylbenzamide], the IC50 is 2300 nM in series [4] (setting [7]) and 2260 nM in series [4] (setting [6]).
`CCOc1ccc(-c2nnc([C@H]3C[C@H](NC(=O)c4ccc[n+]([O-])c4)C3)n2-c2ccccc2F)nc1` [Example 18, 3-((trans-3-(5-(5-ethoxypyridin-2-yl)-4-(2-fluorophenyl)-4H-1,2,4-triazol-3-yl)cyclobutyl)carbamoyl)pyridine 1-oxide]: the IC50 in series [4] (setting [7]) and in series [4] (setting [6]) was above 10000 nM throughout.
For `CCOc1ccc(-c2nnc([C@H]3C[C@H](NC(=O)c4cc[n+]([O-])cc4)C3)n2-c2ccccc2F)nc1` [Example 19, 4-((trans-3-(5-(5-ethoxypyridin-2-yl)-4-(2-fluorophenyl)-4H-1,2,4-triazol-3-yl)cyclobutyl)carbamoyl)pyridine 1-oxide], the IC50 in series [4] (setting [7]) and in series [4] (setting [6]) was 34 nM each time.
For `CCOc1ccc(-c2nnc([C@H]3C[C@H](NC(=O)c4cccc(N)n4)C3)n2-c2ccccc2F)nc1` [Example 20, 6-amino-N-(trans-3-(5-(5-ethoxypyridin-2-yl)-4-(2-fluorophenyl)-4H-1,2,4-triazol-3-yl)cyclobutyl)picolinamide], the IC50 in series [2] (setting [5]) was determined as 7.2 nM; in series [4] (setting [7]), 27 nM; in series [4] (setting [6]), 27 nM.
Regarding `CCOc1ccc(-c2nnc([C@H]3C[C@H](NC(=O)c4ccc5cccc(O)c5n4)C3)n2-c2ccccc2F)nc1` [Example 21, N-(trans-3-(5-(5-ethoxypyridin-2-yl)-4-(2-fluorophenyl)-4H-1,2,4-triazol-3-yl)cyclobutyl)-8-hydroxyquinoline-2-carboxamide], the IC50 was found to be 12.5 nM in series [2] (setting [5]), 72 nM in series [4] (setting [7]) and 72 nM in series [4] (setting [6]).
Regarding `CCOc1ccc(-c2nnc([C@H]3C[C@H](NC(=O)c4cccc5c(N(C)C)ccnc45)C3)n2-c2ccccc2F)nc1` [Example 22], the figures for the IC50 in series [2] (setting [5]), in series [4] (setting [7]) and in series [4] (setting [6]) were 2.1 nM, 15 nM and 15 nM, respectively.
For the compound `CCOc1ccc(-c2nnc([C@H]3C[C@H](NC(=O)c4cccc5cc(O)cnc45)C3)n2-c2ccccc2F)nc1` [Example 23, N-(trans-3-(5-(5-ethoxypyridin-2-yl)-4-(2-fluorophenyl)-4H-1,2,4-triazol-3-yl)cyclobutyl)-3-hydroxyquinoline-8-carboxamide], the IC50 in series [2] (setting [5]) was found to be 1.3 nM; in series [4] (setting [7]), 3.6 nM; in series [4] (setting [6]), 3.6 nM.
In the case of `CCOc1ccc(-c2nnc([C@H]3C[C@H](NC(=O)c4cccc5c4nc(C)c(C)[n+]5[O-])C3)n2-c2ccccc2F)nc1` [Example 24, 5-((trans-3-(5-(5-ethoxypyridin-2-yl)-4-(2-fluorophenyl)-4H-1,2,4-triazol-3-yl)cyclobutyl)carbamoyl)-2,3-dimethylquinoxaline 1-oxide], the IC50 in series [4] (setting [8]) and in series [4] (setting [9]) was 3.7 nM in each case.
Take `CCOc1ccc(-c2nnc([C@H]3C[C@H](NC(=O)c4cccc5c4ccc[n+]5[O-])C3)n2-c2ccccc2F)nc1` [Example 25, 5-((trans-3-(5-(5-ethoxypyridin-2-yl)-4-(2-fluorophenyl)-4H-1,2,4-triazol-3-yl)cyclobutyl)carbamoyl)quinoline 1-oxide]: the IC50 was 978 nM in series [2], 10000 nM in series [4] (setting [8]) and 9960 nM in series [4] (setting [9]).
Consider `CCOc1ccc(-c2nnc([C@H]3C[C@H](NC(=O)c4cc[n+]([O-])c5cccnc45)C3)n2-c2ccccc2F)nc1` [Example 26, 4-((trans-3-(5-(5-ethoxypyridin-2-yl)-4-(2-fluorophenyl)-4H-1,2,4-triazol-3-yl)cyclobutyl)carbamoyl)-1,5-naphthyridine 1-oxide], for which the IC50 in series [2] (setting [5]) is 2.6 nM; in series [4] (setting [7]), 1.4 nM; in series [4] (setting [6]), 1.4 nM.
For `CCOc1ccc(-c2nnc([C@H]3C[C@H](NC(=O)c4cc[n+]([O-])c5cc(O)cnc45)C3)n2-c2ccccc2F)nc1` [Example 27, 4-((trans-3-(5-(5-ethoxypyridin-2-yl)-4-(2-fluorophenyl)-4H-1,2,4-triazol-3-yl)cyclobutyl)carbamoyl)-7-hydroxy-1,5-naphthyridine 1-oxide], the IC50 was determined as 1.7 nM in series [2], 22 nM in series [4] (setting [8]) and 22 nM in series [4] (setting [9]).
With `CCOc1ccc(-c2nnc([C@H]3C[C@H](NC(=O)c4cc[n+]([O-])c5cc(OC)cnc45)C3)n2-c2ccccc2F)nc1` [Example 28, 4-((trans-3-(5-(5-ethoxypyridin-2-yl)-4-(2-fluorophenyl)-4H-1,2,4-triazol-3-yl)cyclobutyl)carbamoyl)-7-methoxy-1,5-naphthyridine 1-oxide], the IC50 in series [2] was 3.5 nM; in series [4] (setting [8]) it was 1.2 nM; in series [4] (setting [9]) it was 1.2 nM.
Regarding `CCOc1ccc(-c2nnc([C@H]3C[C@H](NC(=O)c4cc[n+]([O-])c5cc(F)cnc45)C3)n2-c2ccccc2F)nc1` [Example 29, 4-((trans-3-(5-(5-ethoxypyridin-2-yl)-4-(2-fluorophenyl)-4H-1,2,4-triazol-3-yl)cyclobutyl)carbamoyl)-7-fluoro-1,5-naphthyridine 1-oxide], the IC50 in series [4] (setting [7]) and in series [4] (setting [6]) was 2.8 nM in each case.
